Test system: MSTO-211H xenograft
Assay: Inhibition of mouse xenograft MSTO-211H tumors
Format: in vivo, BALB/c nude mice
Details: 12.5 mg/kg, PO, BID; for Tumor Volume (mean): day 27 (Table 16); for Relative T/C (treated/control relative tumor volume ratio) / TGI: day 27; for Relative T/C (treated/control relative tumor volume ratio): T/C(%) = TRTV / CRTV × 100; for TGI: TGI = [1 − (Ti − T0)/ (Vi − V0)] × 100
From the text: This study evaluated the in vivo anti-tumor efficacy of test compounds in BALB/c nude mice for treatment of MSTO-211H xenograft of lung cancer.
• Species: Mus Musculus • Strain: BALB/c nude • Age: 6-8 weeks • Sex: female • Body weight: 18-22 g • Number of animals inoculated with tumor: 80 mice • Number of animals enrolled in the treatment: 36 mice • Number of unenrolled animals: 44 mice • Animal supplier: Beijing Vital River Biotechnology Experimental Animal Co. Ltd Certification number: 20170011010591
The MSTO-211H tumor cells were maintained in RPMI 1640 medium supplemented with 10% Fetal bovine serum and 1% Antibiotic-Antimycotic at 37° C. in an atmosphere of 5% CO2 in air. The tumor cells were routinely subcultured twice weekly by trypsin-EDTA. The cells growing in an exponential growth phase with 95% cell survival or above were harvested, and counted for tumor inoculation.
Each mouse was inoculated subcutaneously at the right flank with MSTO-211H tumor cells (5×10^6+50% matrigel/0.2 mL) for tumor development. Animals were marked with earrings with unique 6 significant figure number for identification. The treatments were started when the average tumor volume reached an average size of 181 mm^3.
The major endpoint was to see if the tumor growth could be delayed or mice could be cured. Tumor volume was measured twice a week in two dimensions using a caliper, and the volume was expressed in mm^3 using the formula: V=0.5 a×b^2 where a and b are the long and short diameters of the tumor, respectively. The tumor size was then used for calculations of T/C value. The TGI value (in percent) or the T/C value (in percent) is an indication of antitumor effectiveness; T and C are the mean tumor volumes or tumor weights of the treated and control groups, respectively, on a given day.
TGI was calculated for each group using the formula: TGI (%)=[1−(Ti−T0)/(Vi−V0)]×100; Ti is the average tumor volume of a treatment group on a given day, To is the average tumor volume of the treatment group on the day of treatment start, Vi is the average tumor volume of the vehicle control group on the same day with Ti, and V0 is the average tumor volume of the vehicle group on the day of treatment start.
Relative T/C (%)=TRTV/CRTV×100 (RTV(%)=Vt/V0×100, Vt is the average tumor volume on a given day, V0 is the average tumor volume on the first day of treatment. TRTV is the RTV of a treatment group, and the CRTV is the RTV of the vehicle control group.)
Summary statistics, including mean and the standard error of the mean (SEM), were provided for the tumor volume of each group at each time point.
Statistical analysis of difference in tumor volume among the groups was conducted on the data obtained at the end of the study.
One-tailed T test was performed to compare tumor volumes between two groups. All data are analyzed using GraphPad Prism 6.0. p<0.05 is considered to be statistically significant.
The antitumor effectiveness of the study was analyzed on PG-D27 when vehicle group reached 588 mm^3.

[1] = day 0 after the start of treatment
[2] = day 3 after the start of treatment
[3] = day 6 after the start of treatment
[4] = day 10 after the start of treatment
[5] = day 13 after the start of treatment
[6] = day 17 after the start of treatment
[7] = day 20 after the start of treatment
[8] = day 23 after the start of treatment
[9] = day 27 after the start of treatment

Structure (SMILES) | Tumor size (mean) [1] [mm^3] | Tumor size (mean) [2] [mm^3] | Tumor size (mean) [3] [mm^3] | Tumor size (mean) [4] [mm^3] | Tumor size (mean) [5] [mm^3] | Tumor size (mean) [6] [mm^3] | Tumor size (mean) [7] [mm^3] | Tumor size (mean) [8] [mm^3] | Tumor Volume (mean) [mm^3] | Relative T/C (treated/control relative tumor volume ratio) [%] | TGI [%] | Tumor size (mean) [9] [mm^3]
C[C@H](CO)NC(=O)c1cnc2c(C3=CCC(C(F)(F)F)CC3)cccc2c1 (stereo partly drawn) [Compound 7, N—((R)-1-hydroxypropan-2-yl)-8-(4-(trifluoromethyl)cyclohex-1-en-1-yl)quinoline-3-carboxamide] | 181 | 245 | 219 | 124 | 99 | 86 | 109 | 117 | 126 | 21.4 | 113.6 | 126
COC[C@H](CO)NC(=O)c1cnc2c(C3=CCC(C(F)(F)F)CC3)cccc2c1 (stereo partly drawn) [Compound 62, N—((S)-1-hydroxy-3-methoxypropan-2-yl)-8-(4-(trifluoromethyl)cyclohex-1-en-1-yl)quinoline-3-carboxamide] | 181 | 224 | 228 | 149 | 111 | 82 | 88 | 101 | 104 | 17.9 | 119.1 | 104
COc1cc(C2=CCC(C(F)(F)F)CC2)c2ncc(C(=O)N[C@H](C)c3ncco3)cc2c1 (stereo partly drawn) [Compound 109, 6-methoxy-N—((R)-1-(oxazol-2-yl)ethyl)-8-(4-(trifluoromethyl)cyclohex-1-en-1-yl)quinoline-3-carboxamide] | 181 | 216 | 174 | 89 | 59 | 44 | 44 | 46 | 58 | 10.1 | 130.2 | 58
COc1cc(C2=CCC(C(F)(F)F)CC2)c2ncc(C(=O)N[C@H](C)CO)cc2c1 (stereo partly drawn) [Compound 110, N—((R)-1-hydroxypropan-2-yl)-6-methoxy-8-(4-(trifluoromethyl)cyclohex-1-en-1-yl)quinoline-3-carboxamide] | 181 | 207 | 179 | 107 | 75 | 51 | 42 | 53 | 50 | 8.5 | 132.4 | 50
C[C@@H](NC(=O)c1cnc2c(C3=CCC4(CC3)CC4)cccc2c1)c1ncco1 [Compound 166, (R)—N-(1-(oxazol-2-yl)ethyl)-8-(spiro[2.5]oct-5-en-6-yl)quinoline-3-carboxamide] | 181 | 192 | 177 | 153 | 145 | 139 | 148 | 184 | 219 | 38.1 | 90.7 | 219

Source: patent US20250223306A1, “TEAD INHIBITORS AND METHODS OF USE” (Sporos BioDiscovery, Inc., priority 2022, published 2025)
